Marks after values point to notes of the source that are not given here.
Experiments:
Type in all cases: in vivo, Swiss Albino mice
nitric oxide = test: NO signaling: nitric oxide level
Procedure: (§1) Eight 8-week-old male Swiss Albino mice per experimental group were housed in an animal room at a constant temperature (22±3° C.) and humidity (30%-70%) under a 12:12 h light-dark cycle with standard laboratory diet (Purina 5L79, Rat and Mouse 18% protein; PMI Nutrition International, Brentwood, MO, USA). Distilled water was provided ad libitum. All animal experiments were reviewed and approved by the Institutional Animal Ethical Committee (IAEC) of Radiant Research Services Pvt. Ltd (Bangalore, India). All research was conducted in accordance with the guidelines of the committee for the purpose of control and supervision of experiments on animals (CPCSEA Registration Number-1803/PO/RcBi/S/2015/CPCSEA).
(§2) After one week of acclimation, the animals were randomly divided by body weight into different groups (n=8 per group in each test) for oral treatment once a day, at approximately same time each day (+1 hour), for 28 consecutive days: (1) vehicle control; (2) paraxanthine (3) dileucine; (4) paraxanthine+dileucine; (5) L-arginine; (6) L-arginine+dileucine; (7) L-citrulline; and (8) L-citrulline+dileucine. The dose administered to the mice was calculated using US Food and Drug Administration for human equivalence doses (HED), assuming a human weight of 60 kg. The following HED were used in this study: 2,000 mg dileucine (RAMPS™, Ingenious Ingredients, L.P., Lewisville, TX, USA; mouse 411 mg/kg bw), 100 mg paraxanthine, (ENFINITY™, Ingenious Ingredients, L.P Lewisville, TX, USA; mouse dose: 20.5 mg/kg bw/day); 3,000 mg L-arginine (Nanjing Nutrabuilding Bio-tech Co., LTD., No. 270 Jiqingmen Strect, Suning Huigu, Building E6, Room 2105, Nanjing, China 210017; mouse 616.55 mg/kg bw), 3,000 mg L-citrulline (Nanjing Nutrabuilding Bio-tech Co., LTD., No. 270 Jiqingmen Street, Suning Huigu, Building E6, Room 2105, Nanjing, China 210017; mouse 616.55 mg/kg bw). 0.5% Carboxy Methyl Cellulose sodium was used as vehicle and the test item formulations were prepared daily. Dosing was conducted via oral gavage using disposable polypropylene syringes with sterilized stainless steel gavage tubes. The food intake and water consumption were monitored daily, and BW was recorded weekly. The last dose on day 28 was given 1 hour prior to testing.
(§3) All animals were euthanized by 95% CO2 after 28 days of following their assigned treatment. Blood was collected immediately after euthanization by the retro-orbital route and was immediately centrifuged at 1500×g for 10 min at 4° C. before having all serum transferred into cryogenic tubes and stored at −80° C.
(§4) Serum and plasma samples were separated by centrifuging the blood at 8000 rpm for 10 mins and analyze the below mentioned biomarkers, Biomarkers: TC, TG, LDL and HDL, CRP, Serum lactate, Ammonia, Glucose, NO, IL-2, IL-6, IL-10. Blood was collected in EDTA tubes for below mentioned biomarkers, Immune health Biomarkers (T helper subsets): TH1, TH2, TH17, Tfh, iTreg.

[1] = Effect on body weight, 28-day oral supplementation with exercise
Procedure: as §1, §2
Individual body weights were recorded at receipt, on the day of randomization, on the first day of treatment before dosing (Day 1) and weekly thereafter. The body weight changes for all the animals were calculated and reported along with the body weight data.

Tfh = test: Immune health biomarkers (T helper subsets): Tfh
Procedure: as §1, §2, §4

IL-6 = test: Inflammatory markers: IL-6
Procedure: as §1, §2, §3, §4

IL-2 = test: Inflammatory markers: IL-2
Procedure: as §1, §2, §3, §4

[2] = Treadmill exercise / endurance test; parameters: Percentage Increase over control (number of shocks) / Percentage Increase over control (time on shock zone) / Percentage Increase over control (distance travelled): concentration or dose not given beside the values
Procedure: as §1, §2
During the treatment period, exercise training was completed using a motorized treadmill (Exer 3/6, Columbus Instruments international, OH, USA) at a moderate intensity of 20 cm/sec as maximal running speed, an incline of ten degrees and a shock intensity of 0.2 mA, for ten minutes. The speed of the treadmill was manually adjusted by increasing the belt speed by 5 cm/sec every two minutes throughout the total duration of ten minutes. All animals were adapted to this procedure daily 60 minutes after dosing for five days in a week during the treatment period.
On 28th day of each respective treatment, all animals were subjected to a muscle endurance test. Muscle endurance was accomplished on a motorized treadmill at a low to moderate intensity of 5-50 cm/sec as maximal running speed, an incline of ten degrees and a shock intensity of 0.2 mA, with the belt speed being increased by 5 cm/sec every two minutes until it reaches 50 cm/sec. Animals were subjected to the treadmill test until exhaustion. Distance traveled (m) was measured as a marker of exercise performance.

TH1 = test: Immune health biomarkers (T helper subsets): TH1
Procedure: PMI Nutrition International, Brentwood, MO, USA). Distilled water was provided ad libitum. All animal experiments were reviewed and approved by the Institutional Animal Ethical Committee (IAEC) of Radiant Research Services Pvt. Ltd (Bangalore, India). All research was conducted in accordance with the guidelines of the committee for the purpose of control and supervision of experiments on animals (CPCSEA Registration Number-1803/PO/[…]). […] (1) vehicle control; […] (4) paraxanthine+dileucine; […] The dose administered to the mice was calculated using US Food and Drug Administration for human equivalence doses (HED), assuming a human weight of 60 kg. […] Dosing was conducted via oral gavage using disposable polypropylene syringes with sterilized stainless steel gavage tubes. The food intake and water consumption were monitored daily, and BW was recorded weekly. The last dose on day 28 was given 1 hour prior to testing. Serum and plasma samples were separated by centrifuging the blood at 8000 rpm for 10 mins and analyze the below mentioned biomarkers, Biomarkers: TC, TG, LDL and HDL, CRP, Serum lactate, Ammonia, Glucose, NO, IL-2, IL-6, IL-10. Blood was collected in EDTA tubes for below mentioned biomarkers, Immune health Biomarkers (T helper subsets): […]

[3] = after 28 days of supplementation and exercise, mice, n = 8
[4] = T helper subset in blood after 28 days, mice, n = 8
[5] = Day −28, oral once a day for 28 days

Cn1c(=O)[nH]c2ncn(C)c2c1=O [Paraxanthine, 1,7-dimethylxanthine]
Nitric oxide (μmol/L) (mg/L) (nitric oxide; [3]): 84.29*** μmol/L
Nitric oxide Change over control [%] (nitric oxide; vs Exercise Control, 28 days): 33%
Body Weight (grams) Day −0 ([1]; Day −0 (baseline), mice, n = 8): 24.35 grams
Weight gain in grams ([1]; Day −0 to Day −28, oral once a day): 8.86 grams
Body Weight (grams) Day −28 ([1]; Day −28, oral once a day for 28 days, mice, n = 8): 33.21* grams
Percentage weight loss over control ([1]; weight gain vs Exercise Control, 28 days): −18%
Tfh(%) (mg/L) (Tfh; [4]): 54.96*** %
Tfh Change over control [%] (Tfh; vs Exercise Control, 28 days): 603%
IL-6 (pg/ml) (IL-6; [3]): 340.6** pg/ml
IL-6 Change over control [%] (IL-6; vs Exercise Control, 28 days): −8%
IL-2 (IL-2; [3]): 45.91 ng/L
IL-2 Change over control [%] (IL-2; vs Exercise Control, 28 days): 23%
Distance travelled (m) by mice during treadmill exercise Day −0 ([2]; Day −0 (baseline), mice, n = 8): 41.13 m
No. of shocks during treadmill exercise Day −0 ([2]; Day −0 (baseline), mice, n = 8): 26.5
Time spent on shock zone during excercise [sec] Day −0 ([2]; Day −0 (baseline), mice, n = 8): 90.75 s
No. of shocks during treadmill exercise Day −28 [2, 5]: 13.38***
Time spent on shock zone during excercise [sec] Day −28 [2, 5]: 32.25*** sec
Distance travelled (m) by mice during treadmill exercise Day −28 ([2]; Day −28, until exhaustion, oral once a day for 28 days): 325.75*** m
Distance Increase over Day −0 ([2]; Day −28 minus Day −0): 284.62 m
No of Shocks Decrease over Day −0 ([2]; Day −28 minus Day −0): −13.12
Time spent on shock zone over Day −0 ([2]; Day −28 minus Day −0): -58.5 s
Percentage Increase over control (time on shock zone) ([2]; change vs Exercise Control, 28 days): 92%
Percentage Increase over control (number of shocks) ([2]; decrease in shocks vs Exercise Control, 28 days): 67%
Percentage Increase over control (distance travelled) ([2]; increase vs Exercise Control, 28 days): 105%
TH1(%) (TH1; [4]): 65.68*** %
TH1 Change over control [%] (TH1; vs Exercise Control, 28 days): −30%

— patent publication US20240299484A1, “DILEUCINE COMPOSITIONS AND METHODS OF USE THEREOF” (Ingenious Ingredients, LP, priority 2023, published 2024)
